Measurements taken from patent US6235514A, “Nucleic acid molecules encoding isopentenyl monophosphate kinase, and methods of use” (Washington State University Research Foundation, priority 1999, dated 2001).
Several values for one entry are separate records, joined by “and”; a condition that tells them apart may be missing. Equal values may be shown once.

Legend:
[1] = biological target: E. coli IP kinase (ychB, SEQ ID NO:6), partially purified (Escherichia coli, UniProt P62615); test: Kinase assay, partially purified recombinant E. coli IP kinase; assay type: biochemical; details: for Cofactor / phosphate donor requirement of kinase activity: IP as substrate, partially purified E. coli kinase; for Phosphorylating activity with substrate, in words, partially purified E. coli kinase: partially purified protein
[2] = tested on: isolated peppermint oil gland secretory cells; test: Feeding studies with isolated peppermint oil gland secretory cells, incorporation into terpenoids; assay type: cell-based, peppermint (Mentha x piperita L. cv. Black Mitcham); details: radiolabeled precursor, 23° C., 2 h; average of two experiments; includes geraniol and farnesol
Method: Isolation of and Feeding Studies with Peppermint Oil Gland Secretory Cells: Leaves (15-20 g; <10 mm in length) were excised from peppermint plants (Mentha x piperita L. cv. Black Mitcham) and the oil gland secretory cells were isolated by the glass bead abrasion method (McCaskill, D. & Croteau, R., Planta, 197:49-56 [1995]). Following isolation, the secretory cells were washed with 25 mM Tris/HCl buffer (pH 7.3) containing 200 mM sorbitol, 10 mM sucrose, 5 mM MgCl2, 10 mM KCl, 1 mM ethyleneglycol bis(β-aminoethyl ether), 8.5 mM Na2 HPO4, and 0.1 mM Na4 P2 O7, and then suspended in the same buffer supplemented with 2 mM ATP, 0.1 mM NADPH, 0.1 mM NAD^+, 5 mM phosphoenol pyruvate, and 5 mM glucose-6-phosphate. Cell density was determined using a hemocytometer and was adjusted to 1-2×10^5 cellular disks (each containing eight secretory cells) per milliliter suspension. Aliquots (1-1.5 ml) were transferred to 15 ml screw-cap glass vials, and the suspended cells were aerated and incubated at 23° C. for 2 h. At the end of the incubation period, the suspension was extracted three times with 1 ml diethyl ether. The combined organic extract was washed with 1 ml of 1 M Na2 CO3 and dried over Na2 SO4. An aliquot was removed for liquid scintillation counting and, to the remainder, authentic standards (10-50 μg each) of isopentenol, dimethylallyl alcohol, geraniol, farnesol, limonene, menthone, menthol, pulegone, humulene, and caryophyllene were added. These extracts were then slowly concentrated on ice under a gentle stream of N2 to ~200 μl, and were then transferred to conical glass vials and further concentrated to 5-10 μl at 20° C. in preparation for chromatographic analysis.
Radio-GLC Analysis of Peppermint Isoprenoids: Radio-GC was performed according to a published method (Croteau, R. & Satterwhite, D. M. J. Chromatog. 500:349-354 [1990]) with several modifications; 0.25 mm i.d.×30 m AT 1000 fused silica column with 0.2 μm film thickness (Alltech); helium carrier gas at 3-6 ml/min^-1; temperature program from 70 to 200° C. at 5° C./min^-1; injector at 200° C.; thermal conductivity detector at 220° C. and 140 mA; propane quench gas at 10-15 ml/min^-1. The relative peak area corresponding to each biosynthetic product was converted to dpm as a fraction of the total radioactivity determined by liquid scintillation counting prior to concentration. The absolute amount of each component formed was then calculated based on the specific activity of the corresponding radiolabeled substrate.

[3] = tested on: E. coli background (repressed, 0.02% glucose); test: Kinase assay, E. coli background (repressed) controls; assay type: biochemical; details: crude extract, transgene repressed with 0.02% glucose; rates are minimums
[4] = biological target: E. coli IP kinase (ychB, SEQ ID NO:6) (Escherichia coli, UniProt P62615); test: Kinase assay, recombinant E. coli IP kinase (induced), crude extracts; assay type: biochemical; details: crude extract, induced with 0.02% arabinose; rates are minimums
[5] = biological target: T1, recombinant peppermint kinase (isopentenyl monophosphate kinase, SEQ ID NO:2) (Mentha piperita, UniProt P56848); test: Kinase assay, recombinant peppermint IP kinase, crude extracts of transformed E. coli; assay type: biochemical, peppermint (Mentha x piperita); details: crude extract, standard assay conditions
T1 sequence (P56848 98-405): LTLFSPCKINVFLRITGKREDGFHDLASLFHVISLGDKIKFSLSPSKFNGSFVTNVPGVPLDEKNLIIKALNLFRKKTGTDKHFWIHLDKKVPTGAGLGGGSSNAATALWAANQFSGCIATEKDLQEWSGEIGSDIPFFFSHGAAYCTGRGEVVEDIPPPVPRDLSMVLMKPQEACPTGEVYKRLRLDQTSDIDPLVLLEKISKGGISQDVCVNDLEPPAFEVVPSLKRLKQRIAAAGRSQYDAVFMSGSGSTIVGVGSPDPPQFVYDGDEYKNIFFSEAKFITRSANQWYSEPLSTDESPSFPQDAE

E. coli IP kinase (ychB, SEQ ID NO:6), partially purified, sequence (P62615 whole entry): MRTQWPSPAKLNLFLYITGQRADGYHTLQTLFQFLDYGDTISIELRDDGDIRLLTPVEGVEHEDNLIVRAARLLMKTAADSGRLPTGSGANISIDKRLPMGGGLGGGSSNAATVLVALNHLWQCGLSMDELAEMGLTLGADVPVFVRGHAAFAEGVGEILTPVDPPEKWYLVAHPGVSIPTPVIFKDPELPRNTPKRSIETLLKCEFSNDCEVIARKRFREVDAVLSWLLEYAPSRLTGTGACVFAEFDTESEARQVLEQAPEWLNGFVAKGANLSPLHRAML
E. coli IP kinase (ychB, SEQ ID NO:6), sequence (P62615 whole entry): as above

Compound | Cofactor / phosphate donor requirement of kinase activity [1] | Total Terpenoids (C10 + C15), rate of incorporation into total monoterpenoids and sesquiterpenoids [2] | other results
Nc1ncnc2c1ncn2[C@@H]1O[C@H](COP(=O)(O)OP(=O)(O)OP(=O)(O)O)[C@@H](O)[C@H]1O [ATP] | dependent upon the presence |  | 
Nc1ccn([C@@H]2O[C@H](COP(=O)(O)OP(=O)(O)OP(=O)(O)O)[C@@H](O)[C@H]2O)c(=O)n1 [CTP] | did not serve as alternate phosphate donors |  | 
CC(C)=CCO [DMA, dimethylallyl alcohol] |  | negligible | Rate (kinase activity with substrate), E. coli (partially purified) ([1]; Ni2+ affinity-purified enzyme, averages with standard deviation): 11 ± 5 pmol/s · g protein; Phosphorylating activity with substrate, in words, partially purified E. coli kinase [1]: readily catalyzed the conversion; Rate (kinase activity with substrate), E. coli (repressed) [3]: < 0.01 pmol/s · g protein; Rate (kinase activity with substrate), E. coli (induced) [4]: < 0.01 pmol/s · g protein; Kinase activity with substrate, recombinant peppermint kinase [5]: ≤ 0.01 pmol (s g protein)^-1
CC(C)=CCOP(=O)(O)O [DMAP, dimethylallyl monophosphate] |  | 6 pmol (h 10^5 cell clusters)^-1 and < 6 pmol (h 10^5 cell clusters)^-1 | 
CC(C)=CCOP(=O)(O)OP(=O)(O)O [DMAPP, dimethylallyl diphosphate] |  | 4 pmol (h 10^5 cell clusters)^-1 and < 6 pmol (h 10^5 cell clusters)^-1 | 
Nc1nc2c(ncn2[C@@H]2O[C@H](COP(=O)(O)OP(=O)(O)OP(=O)(O)O)[C@@H](O)[C@H]2O)c(=O)[nH]1 [GTP] | did not serve as alternate phosphate donors |  | 
C=C(C)CCOP(=O)(O)O [IP, isopentenyl monophosphate] |  | 43 pmol (h 10^5 cell clusters)^-1 | 
C=C(C)CCOP(=O)(O)OP(=O)(O)O [IPP, isopentenyl diphosphate] |  | 561 pmol (h 10^5 cell clusters)^-1 | 
C=C(C)CCO [ISO, isopentenol] |  | 304 pmol (h 10^5 cell clusters)^-1 | 
C[C@](O)(CO)[C@H](O)COP(=O)(O)O [MEP, 2-C-methylerythritol-4-phosphate] |  |  | Phosphorylating activity with substrate, in words, partially purified E. coli kinase [1]: no phosphorylating activity was detectable; Rate (kinase activity with substrate), E. coli (repressed) [3]: < 0.2 pmol/s · g protein; Rate (kinase activity with substrate), E. coli (induced) [4]: < 0.2 pmol/s · g protein; Kinase activity with substrate, recombinant peppermint kinase [5]: less than 0.2 pmol (s g protein)^-1
[Cl-].[Cl-].[Mg+2] [MgCl2] | dependent upon the presence |  | 
O=c1ccn([C@@H]2O[C@H](COP(=O)(O)OP(=O)(O)OP(=O)(O)O)[C@@H](O)[C@H]2O)c(=O)[nH]1 [UTP] | did not serve as alternate phosphate donors |  | 
